In ChEMBL document CHEMBL3991601, “The target landscape of clinical kinase drugs” (Science, 2017):
Activity calls are given as the source filed them. Cut-off read from the data, not from the text of the source, for most assays here: actives have a measured Kd and inactives only a lower limit.

Legend:
[1] = target: Tyrosine-protein kinase ABL1 (Homo sapiens, UniProt P00519)
[2] = target: Serine/threonine-protein kinase MRCK beta (Homo sapiens, UniProt Q9Y5S2)
[3] = target: T1, Discoidin domain-containing receptor 2 (Homo sapiens, UniProt Q16832)
T1 sequence (Q16832 whole entry): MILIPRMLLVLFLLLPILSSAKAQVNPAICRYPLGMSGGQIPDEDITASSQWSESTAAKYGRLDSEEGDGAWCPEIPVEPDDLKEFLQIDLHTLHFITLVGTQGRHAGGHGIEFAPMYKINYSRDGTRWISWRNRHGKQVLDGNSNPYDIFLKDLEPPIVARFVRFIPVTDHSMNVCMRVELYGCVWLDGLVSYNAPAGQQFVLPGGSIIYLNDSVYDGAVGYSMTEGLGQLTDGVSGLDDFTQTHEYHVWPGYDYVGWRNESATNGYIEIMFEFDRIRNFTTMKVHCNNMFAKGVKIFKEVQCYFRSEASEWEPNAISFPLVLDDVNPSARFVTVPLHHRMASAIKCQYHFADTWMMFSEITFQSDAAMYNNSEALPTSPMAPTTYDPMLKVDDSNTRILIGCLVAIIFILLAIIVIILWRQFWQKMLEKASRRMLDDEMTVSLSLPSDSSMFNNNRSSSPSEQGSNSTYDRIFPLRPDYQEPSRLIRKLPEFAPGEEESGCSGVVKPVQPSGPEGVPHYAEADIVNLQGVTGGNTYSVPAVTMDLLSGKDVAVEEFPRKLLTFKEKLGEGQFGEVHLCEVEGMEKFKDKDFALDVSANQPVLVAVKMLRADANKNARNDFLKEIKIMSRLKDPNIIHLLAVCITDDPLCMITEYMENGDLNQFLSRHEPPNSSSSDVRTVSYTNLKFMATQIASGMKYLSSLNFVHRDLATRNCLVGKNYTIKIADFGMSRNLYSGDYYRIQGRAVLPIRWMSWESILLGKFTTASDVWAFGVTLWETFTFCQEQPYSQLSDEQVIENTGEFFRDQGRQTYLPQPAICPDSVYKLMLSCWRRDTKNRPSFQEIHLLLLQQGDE

[4] = target: Mitogen-activated protein kinase kinase kinase 4 (Homo sapiens, UniProt Q9Y6R4)
[5] = target: T2, Mitogen-activated protein kinase kinase kinase kinase 3 (Homo sapiens, UniProt Q8IVH8)
T2 sequence (Q8IVH8 whole entry): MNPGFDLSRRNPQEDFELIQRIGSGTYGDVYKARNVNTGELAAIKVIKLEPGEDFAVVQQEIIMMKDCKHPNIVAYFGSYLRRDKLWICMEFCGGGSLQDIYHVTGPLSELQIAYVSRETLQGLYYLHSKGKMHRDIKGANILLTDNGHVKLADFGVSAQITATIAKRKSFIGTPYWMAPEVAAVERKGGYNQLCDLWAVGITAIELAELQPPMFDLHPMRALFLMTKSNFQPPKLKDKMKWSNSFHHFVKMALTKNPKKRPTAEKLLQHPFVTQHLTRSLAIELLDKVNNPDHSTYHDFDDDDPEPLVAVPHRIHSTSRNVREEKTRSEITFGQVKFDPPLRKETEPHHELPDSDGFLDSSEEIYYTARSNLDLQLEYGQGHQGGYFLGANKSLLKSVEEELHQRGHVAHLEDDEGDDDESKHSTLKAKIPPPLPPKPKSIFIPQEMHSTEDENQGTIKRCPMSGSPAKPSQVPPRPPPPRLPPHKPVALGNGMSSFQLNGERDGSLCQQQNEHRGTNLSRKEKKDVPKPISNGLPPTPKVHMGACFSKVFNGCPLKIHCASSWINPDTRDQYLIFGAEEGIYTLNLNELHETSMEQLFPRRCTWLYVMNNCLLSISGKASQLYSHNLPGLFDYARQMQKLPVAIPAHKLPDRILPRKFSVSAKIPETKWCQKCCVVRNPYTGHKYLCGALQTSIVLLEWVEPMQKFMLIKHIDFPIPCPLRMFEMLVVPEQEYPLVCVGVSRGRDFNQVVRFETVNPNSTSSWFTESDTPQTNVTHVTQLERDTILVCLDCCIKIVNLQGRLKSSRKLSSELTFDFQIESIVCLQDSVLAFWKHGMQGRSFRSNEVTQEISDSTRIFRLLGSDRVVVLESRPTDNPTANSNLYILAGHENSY

[6] = target: T3, cGMP-dependent protein kinase 1 (Homo sapiens, UniProt Q13976)
T3 sequence (Q13976 whole entry): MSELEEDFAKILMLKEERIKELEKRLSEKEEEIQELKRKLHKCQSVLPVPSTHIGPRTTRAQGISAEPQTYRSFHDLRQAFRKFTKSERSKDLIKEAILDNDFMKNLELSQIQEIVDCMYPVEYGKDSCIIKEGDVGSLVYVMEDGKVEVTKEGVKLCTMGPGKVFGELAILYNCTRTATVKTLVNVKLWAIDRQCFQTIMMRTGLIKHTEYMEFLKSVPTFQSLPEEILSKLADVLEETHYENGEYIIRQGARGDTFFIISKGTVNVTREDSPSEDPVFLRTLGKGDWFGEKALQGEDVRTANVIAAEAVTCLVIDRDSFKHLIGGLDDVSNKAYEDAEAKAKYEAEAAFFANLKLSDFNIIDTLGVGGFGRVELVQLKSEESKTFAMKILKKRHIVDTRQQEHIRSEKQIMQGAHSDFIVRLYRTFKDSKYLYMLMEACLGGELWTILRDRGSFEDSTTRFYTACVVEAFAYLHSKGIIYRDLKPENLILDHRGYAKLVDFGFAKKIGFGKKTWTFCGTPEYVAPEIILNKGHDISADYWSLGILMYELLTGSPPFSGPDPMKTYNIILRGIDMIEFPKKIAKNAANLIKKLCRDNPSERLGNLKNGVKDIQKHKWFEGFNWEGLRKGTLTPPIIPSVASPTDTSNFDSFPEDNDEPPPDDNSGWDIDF

[7] = target: Ribosomal protein S6 kinase alpha-6 (Homo sapiens, UniProt Q9UK32)
Sequence of Ribosomal protein S6 kinase alpha-6 (Q9UK32 whole entry): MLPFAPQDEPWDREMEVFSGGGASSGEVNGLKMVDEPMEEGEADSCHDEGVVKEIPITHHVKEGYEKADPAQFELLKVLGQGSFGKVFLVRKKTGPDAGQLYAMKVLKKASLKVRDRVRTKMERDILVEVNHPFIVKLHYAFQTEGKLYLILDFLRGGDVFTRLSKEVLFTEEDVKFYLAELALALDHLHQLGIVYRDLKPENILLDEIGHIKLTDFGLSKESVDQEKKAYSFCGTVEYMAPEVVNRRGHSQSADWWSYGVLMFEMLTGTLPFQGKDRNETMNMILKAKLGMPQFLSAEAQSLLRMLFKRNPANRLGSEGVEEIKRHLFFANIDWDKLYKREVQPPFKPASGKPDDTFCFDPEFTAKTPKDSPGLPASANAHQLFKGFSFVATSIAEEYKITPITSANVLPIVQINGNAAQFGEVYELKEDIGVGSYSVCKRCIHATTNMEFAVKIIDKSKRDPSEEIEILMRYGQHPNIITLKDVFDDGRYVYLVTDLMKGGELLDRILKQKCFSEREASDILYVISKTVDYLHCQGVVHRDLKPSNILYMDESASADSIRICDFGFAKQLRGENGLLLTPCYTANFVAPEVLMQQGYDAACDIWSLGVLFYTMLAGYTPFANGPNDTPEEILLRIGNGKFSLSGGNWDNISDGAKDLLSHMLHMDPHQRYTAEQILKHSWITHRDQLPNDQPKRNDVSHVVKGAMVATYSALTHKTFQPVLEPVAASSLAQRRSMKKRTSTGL

[8] = target: Ribosomal protein S6 kinase beta-1 (Homo sapiens, UniProt P23443)
Sequence of Ribosomal protein S6 kinase beta-1 (P23443 whole entry): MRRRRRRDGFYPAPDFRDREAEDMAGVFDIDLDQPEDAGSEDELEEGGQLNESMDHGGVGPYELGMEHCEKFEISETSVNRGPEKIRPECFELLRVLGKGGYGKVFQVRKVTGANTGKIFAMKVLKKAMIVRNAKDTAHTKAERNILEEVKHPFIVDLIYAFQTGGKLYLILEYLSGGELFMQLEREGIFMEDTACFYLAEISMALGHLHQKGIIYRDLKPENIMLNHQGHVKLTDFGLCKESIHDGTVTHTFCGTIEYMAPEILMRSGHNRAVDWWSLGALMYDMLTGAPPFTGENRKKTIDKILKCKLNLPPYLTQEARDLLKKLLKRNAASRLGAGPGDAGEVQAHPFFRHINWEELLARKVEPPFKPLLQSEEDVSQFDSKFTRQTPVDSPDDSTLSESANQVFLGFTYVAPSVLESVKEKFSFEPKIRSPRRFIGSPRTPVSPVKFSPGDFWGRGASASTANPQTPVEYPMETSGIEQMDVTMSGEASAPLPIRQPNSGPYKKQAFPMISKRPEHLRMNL

[9] = target: NADH dehydrogenase [ubiquinone] 1 alpha subcomplex subunit 13 (Homo sapiens, UniProt Q9P0J0)
Sequence of NADH dehydrogenase [ubiquinone] 1 alpha subcomplex subunit 13 (Q9P0J0 whole entry, one chain of several): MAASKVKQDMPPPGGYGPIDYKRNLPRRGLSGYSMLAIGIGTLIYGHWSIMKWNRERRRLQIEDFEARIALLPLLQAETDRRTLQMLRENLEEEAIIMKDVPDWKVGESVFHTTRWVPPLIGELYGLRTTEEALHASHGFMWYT
Note: in the data inactive means no Kd found up to 30 µM.

Sequence of Serine/threonine-protein kinase MRCK beta (Q9Y5S2 whole entry, the tested form may be a part): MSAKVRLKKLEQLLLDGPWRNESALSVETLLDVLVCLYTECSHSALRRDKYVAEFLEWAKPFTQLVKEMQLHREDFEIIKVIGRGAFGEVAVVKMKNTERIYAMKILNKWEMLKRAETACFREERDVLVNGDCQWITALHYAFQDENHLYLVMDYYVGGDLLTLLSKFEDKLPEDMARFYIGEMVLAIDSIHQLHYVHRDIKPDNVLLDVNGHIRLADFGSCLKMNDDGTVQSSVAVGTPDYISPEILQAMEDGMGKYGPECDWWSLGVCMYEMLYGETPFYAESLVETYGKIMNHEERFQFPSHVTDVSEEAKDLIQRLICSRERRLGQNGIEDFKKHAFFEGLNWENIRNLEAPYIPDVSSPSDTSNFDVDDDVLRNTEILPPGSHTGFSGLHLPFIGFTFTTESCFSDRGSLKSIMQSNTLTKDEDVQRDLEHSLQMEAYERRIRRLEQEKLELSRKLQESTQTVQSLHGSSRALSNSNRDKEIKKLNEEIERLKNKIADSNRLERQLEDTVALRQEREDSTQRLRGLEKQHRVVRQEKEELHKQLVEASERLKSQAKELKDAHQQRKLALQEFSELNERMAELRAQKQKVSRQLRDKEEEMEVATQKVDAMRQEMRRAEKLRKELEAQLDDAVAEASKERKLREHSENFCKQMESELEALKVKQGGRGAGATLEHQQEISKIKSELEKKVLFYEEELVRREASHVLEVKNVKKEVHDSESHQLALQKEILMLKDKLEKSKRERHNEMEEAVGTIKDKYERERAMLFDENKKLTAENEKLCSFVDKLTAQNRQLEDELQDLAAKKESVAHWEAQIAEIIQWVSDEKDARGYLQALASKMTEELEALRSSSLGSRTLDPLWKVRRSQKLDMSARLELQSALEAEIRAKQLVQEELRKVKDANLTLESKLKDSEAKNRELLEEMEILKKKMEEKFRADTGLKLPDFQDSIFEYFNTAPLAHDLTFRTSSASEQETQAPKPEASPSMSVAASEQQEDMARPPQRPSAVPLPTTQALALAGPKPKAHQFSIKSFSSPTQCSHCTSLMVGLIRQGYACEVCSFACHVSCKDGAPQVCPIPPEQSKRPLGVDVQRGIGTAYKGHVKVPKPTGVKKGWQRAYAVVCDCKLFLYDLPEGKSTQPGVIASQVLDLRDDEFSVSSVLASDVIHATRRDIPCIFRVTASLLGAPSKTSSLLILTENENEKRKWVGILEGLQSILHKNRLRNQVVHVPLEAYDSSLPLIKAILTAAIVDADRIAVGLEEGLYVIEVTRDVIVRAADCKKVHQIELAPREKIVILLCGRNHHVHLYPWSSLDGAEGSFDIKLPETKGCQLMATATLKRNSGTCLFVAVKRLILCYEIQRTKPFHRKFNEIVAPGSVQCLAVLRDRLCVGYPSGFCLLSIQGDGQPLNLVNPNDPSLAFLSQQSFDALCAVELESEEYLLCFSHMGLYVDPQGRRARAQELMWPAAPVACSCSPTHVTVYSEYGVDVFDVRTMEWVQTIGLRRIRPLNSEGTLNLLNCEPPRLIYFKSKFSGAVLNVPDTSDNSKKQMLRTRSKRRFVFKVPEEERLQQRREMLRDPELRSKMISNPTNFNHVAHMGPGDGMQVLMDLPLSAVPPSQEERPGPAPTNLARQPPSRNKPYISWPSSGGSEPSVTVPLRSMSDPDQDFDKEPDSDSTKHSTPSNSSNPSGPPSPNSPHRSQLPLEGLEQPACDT
Sequence of Tyrosine-protein kinase ABL1 (P00519 whole entry): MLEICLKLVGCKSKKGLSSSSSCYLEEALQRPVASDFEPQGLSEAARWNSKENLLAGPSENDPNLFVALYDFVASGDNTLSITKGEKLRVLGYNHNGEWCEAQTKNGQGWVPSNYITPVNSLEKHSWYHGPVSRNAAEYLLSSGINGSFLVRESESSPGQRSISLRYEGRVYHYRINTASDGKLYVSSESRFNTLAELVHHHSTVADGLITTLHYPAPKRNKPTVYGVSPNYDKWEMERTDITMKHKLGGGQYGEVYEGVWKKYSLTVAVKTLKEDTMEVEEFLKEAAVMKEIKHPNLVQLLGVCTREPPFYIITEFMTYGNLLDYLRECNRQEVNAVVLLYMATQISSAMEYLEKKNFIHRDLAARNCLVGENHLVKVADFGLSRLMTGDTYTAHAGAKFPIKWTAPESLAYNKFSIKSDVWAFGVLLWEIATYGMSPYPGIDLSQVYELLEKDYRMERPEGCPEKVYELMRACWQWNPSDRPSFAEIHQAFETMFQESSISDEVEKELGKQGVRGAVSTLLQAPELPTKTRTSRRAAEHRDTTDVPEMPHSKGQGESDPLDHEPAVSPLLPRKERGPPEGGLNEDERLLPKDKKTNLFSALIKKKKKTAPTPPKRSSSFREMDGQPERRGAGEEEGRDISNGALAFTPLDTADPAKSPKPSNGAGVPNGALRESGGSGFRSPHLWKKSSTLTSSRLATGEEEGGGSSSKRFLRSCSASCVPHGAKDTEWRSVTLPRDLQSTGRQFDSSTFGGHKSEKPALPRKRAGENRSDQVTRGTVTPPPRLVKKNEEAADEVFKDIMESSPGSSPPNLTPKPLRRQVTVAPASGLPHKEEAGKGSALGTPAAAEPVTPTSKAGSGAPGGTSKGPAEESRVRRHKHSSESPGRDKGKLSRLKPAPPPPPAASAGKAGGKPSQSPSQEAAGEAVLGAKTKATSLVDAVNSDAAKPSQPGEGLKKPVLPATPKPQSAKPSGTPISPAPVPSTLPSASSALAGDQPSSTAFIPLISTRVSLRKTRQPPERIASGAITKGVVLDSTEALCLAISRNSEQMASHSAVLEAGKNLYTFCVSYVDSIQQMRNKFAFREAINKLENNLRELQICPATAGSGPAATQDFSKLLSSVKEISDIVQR

Structure (SMILES) | Kd [1] | Kd [2] | Kd [3] | Kd [4] | Kd [5] | Kd [6] | Kd [7] | Kd [8] | Kd [9]
Cn1c(=O)c(F)c(Nc2ccc(I)cc2F)c2c(=O)n(C[C@@H](O)CO)cnc21 [TAK-733] | > 30 µM (inactive) | > 30 µM (inactive) | > 30 µM (inactive) | > 30 µM (inactive) | > 30 µM (inactive) | > 30 µM (inactive) | > 30 µM (inactive) | > 30 µM (inactive) | –
COc1cc2ncnc3c2cc1OCCCCCN(C)Cc1ccc(Br)cc1N3 [JNJ-26483327] | > 30 µM (inactive) | > 30 µM (inactive) | > 30 µM (inactive) | > 30 µM (inactive) | > 30 µM (inactive) | > 30 µM (inactive) | > 30 µM (inactive) | – | > 30 µM (inactive)
C[C@]1(O)C[C@@H](c2nc(-c3ccc4ccc(-c5ccccc5)nc4c3)c3c(N)nccn32)C1 [LINSITINIB] | – | > 30 µM (inactive) | > 30 µM (inactive) | > 30 µM (inactive) | 15.4 µM (active) | – | > 30 µM (inactive) | – | > 30 µM (inactive)
CN(c1ncccc1CNc1nc(Nc2ccc3c(c2)CC(=O)N3)ncc1C(F)(F)F)S(C)(=O)=O [PF-00562271] | – | > 30 µM (inactive) | > 30 µM (inactive) | > 30 µM (inactive) | > 30 µM (inactive) | – | > 30 µM (inactive) | – | > 30 µM (inactive)
Cn1c(=O)n(-c2ccc(C(C)(C)C#N)cc2)c2c3cc(-c4cnc5ccccc5c4)ccc3ncc21 [DACTOLISIB] | – | > 30 µM (inactive) | – | > 30 µM (inactive) | > 30 µM (inactive) | > 30 µM (inactive) | > 30 µM (inactive) | – | > 30 µM (inactive)
CN1CCN(c2nc(C3=C(c4c[nH]c5ccccc45)C(=O)NC3=O)c3ccccc3n2)CC1 [SOTRASTAURIN] | > 30 µM (inactive) | > 30 µM (inactive) | > 30 µM (inactive) | > 30 µM (inactive) | > 30 µM (inactive) | > 30 µM (inactive) | – | > 30 µM (inactive) | > 30 µM (inactive)
CCOc1ccn(-c2ccc(F)cc2)c(=O)c1C(=O)Nc1ccc(Oc2ccnc(N)c2Cl)c(F)c1 [BMS-777607] | 0.523 µM (active) | > 30 µM (inactive) | 0.065 µM (active) | > 30 µM (inactive) | > 30 µM (inactive) | > 30 µM (inactive) | > 30 µM (inactive) | – | –
Cn1cnc2c(F)c(Nc3ccc(Br)cc3Cl)c(C(=O)NOCCO)cc21 [SELUMETINIB] | – | – | – | – | – | – | – | – | > 30 µM (inactive)
O=S(=O)(c1cccc2cnccc12)N1CCCNCC1 [FASUDIL] | > 30 µM (inactive) | > 30 µM (inactive) | > 30 µM (inactive) | > 30 µM (inactive) | > 30 µM (inactive) | – | > 30 µM (inactive) | – | > 30 µM (inactive)
COc1cc2c(N3CCN(C(=O)Nc4ccc(OC(C)C)cc4)CC3)ncnc2cc1OCCCN1CCCCC1 [TANDUTINIB] | – | – | – | – | – | – | – | – | > 30 µM (inactive)
COc1cc2c(Oc3ccc4[nH]c(C)cc4c3F)ncnc2cc1OCCCN1CCCC1 [CEDIRANIB] | – | – | – | – | – | – | – | – | > 30 µM (inactive)
CC(C)CC(=O)Nc1[nH]nc2c1CN(C(=O)C1CCN(C)CC1)C2(C)C [PHA-793887] | – | > 30 µM (inactive) | > 30 µM (inactive) | > 30 µM (inactive) | > 30 µM (inactive) | – | > 30 µM (inactive) | > 30 µM (inactive) | > 30 µM (inactive)
C=CCn1c(=O)c2cnc(Nc3ccc(N4CCN(C)CC4)cc3)nc2n1-c1cccc(C(C)(C)O)n1 [ADAVOSERTIB] | – | > 30 µM (inactive) | > 30 µM (inactive) | 0.052 µM (active) | > 30 µM (inactive) | > 30 µM (inactive) | > 30 µM (inactive) | > 30 µM (inactive) | > 30 µM (inactive)
CC1(C)CNc2cc(NC(=O)c3cccnc3NCc3ccncc3)ccc21 [MOTESANIB] | – | – | – | – | – | – | – | – | > 30 µM (inactive)
CN(C)C/C=C/C(=O)Nc1cc2c(Nc3ccc(F)c(Cl)c3)ncnc2cc1O[C@H]1CCOC1 [AFATINIB] | – | – | – | – | – | – | – | – | > 30 µM (inactive)
O=c1[nH]c([C@@H]2CCCN2)nc2c1oc1ccc(Cl)cc12 | > 30 µM (inactive) | > 30 µM (inactive) | > 30 µM (inactive) | > 30 µM (inactive) | > 30 µM (inactive) | > 30 µM (inactive) | > 30 µM (inactive) | – | > 30 µM (inactive)
Cn1cc(-c2[nH]c3cc(NC(=O)[C@H](N)C4CCCCC4)cc4c3c2C=NNC4=O)cn1 | – | > 30 µM (inactive) | > 30 µM (inactive) | > 30 µM (inactive) | 1.54 µM (active) | > 30 µM (inactive) | 2.38 µM (active) | 2.38 µM (active) | > 30 µM (inactive)
CCc1nc(C(N)=O)c(Nc2ccc(N3CCC(N4CCN(C)CC4)CC3)c(OC)c2)nc1NC1CCOCC1 [GILTERITINIB] | > 30 µM (inactive) | > 30 µM (inactive) | > 30 µM (inactive) | > 30 µM (inactive) | – | > 30 µM (inactive) | > 30 µM (inactive) | > 30 µM (inactive) | > 30 µM (inactive)
N#CCNC(=O)c1ccc(-c2ccnc(Nc3ccc(N4CCOCC4)cc3)n2)cc1 [MOMELOTINIB] | – | – | > 30 µM (inactive) | > 30 µM (inactive) | – | > 30 µM (inactive) | > 30 µM (inactive) | > 30 µM (inactive) | > 30 µM (inactive)
CCN(CCCOc1ccc2c(Nc3cc(CC(=O)Nc4cccc(F)c4)n[nH]3)ncnc2c1)CCOP(=O)(O)O [BARASERTIB] | – | > 30 µM (inactive) | > 30 µM (inactive) | > 30 µM (inactive) | > 30 µM (inactive) | > 30 µM (inactive) | > 30 µM (inactive) | > 30 µM (inactive) | > 30 µM (inactive)
O=S(=O)(c1cccc2c(O)nccc12)N1CCCNCC1 [HYDROXYFASUDIL] | – | > 30 µM (inactive) | > 30 µM (inactive) | > 30 µM (inactive) | > 30 µM (inactive) | > 30 µM (inactive) | > 30 µM (inactive) | > 30 µM (inactive) | > 30 µM (inactive)
